# Test results taken from patent US20060069289A1, “Process for production 2-deoxyaldose compound” (MITSUI CHEMICALS, INC., priority 2003, published 2006).
# Experiment: Stability test of KDG to heat in water (remaining rate observed according to HPLC)
# Format: physicochemical
# Conditions: for Remaining Rate of KDG: water 10 times the amount of KDG
# Description: HPLC Analytic Conditions: ShodexAsahipack NH2-P50 (manufactured by Showa Denko K.K.), 50 mM sodium hydrogen phosphate aqueous solution, flow rate of 1 ml/min. and detection UV of 210 nm.
# 1.21 g (5.61 mmole) of KDG potassium salt was dissolved in 10 g of water (10 times the amount of KDG). pH of the solution was 7.3. Subsequently, when 64 mg (1.69 mmole: 0.3 equivalent) of granular sodium borohydride was added at 25° C., the reaction temperature increased to 33° C. Furthermore, pH after the completion of the reaction was 10.8. After the reaction was completed, when observed by HPLC, the reaction yield of metasaccharic acid was 94%. The reaction heat was observed as remarkable. […] In order to carry out the reaction with the good yield, stability to the heat of KDG was measured in the presence of water with 10 times the amount of KDG. (Table 1) (Table 2) (Table 3)
# Here, the results of stability test to the KDG heat in the presence of water 10 times the amount of KDG are shown below. (Table 4)
compound,measurement,setting,value
O=C(O)C(O)CC(O)C(O)CO (stereo not drawn),Stability (in words),"generated product of the sodium borohydride reduction, aqueous reaction conditions",stable
"O=C(O)C(=O)C[C@H](O)[C@H](O)CO [KDG, 2-keto-3-deoxy-D-gluconic acid]",Remaining Rate of KDG,"pH 7.0, 25° C., 2 hours",101%
same,Remaining Rate of KDG,"pH 7.0, 25° C., 4 hours",100%
same,Remaining Rate of KDG,"pH 7.0, 25° C., 21 hours",100%
same,Remaining Rate of KDG,"pH 7.0, 25° C., 24 hours",101%
same,Remaining Rate of KDG,"pH 7.0, 50° C., 2 hours",100%
same,Remaining Rate of KDG,"pH 7.0, 50° C., 4 hours",101%
same,Remaining Rate of KDG,"pH 7.0, 50° C., 21 hours",100%
same,Remaining Rate of KDG,"pH 7.0, 50° C., 24 hours",99%
same,Remaining Rate of KDG,"pH 8.5, 25° C., 2 hours",100%
same,Remaining Rate of KDG,"pH 8.5, 25° C., 4 hours",99%
same,Remaining Rate of KDG,"pH 8.5, 25° C., 21 hours",101%
same,Remaining Rate of KDG,"pH 8.5, 25° C., 24 hours",100%
same,Remaining Rate of KDG,"pH 8.5, 50° C., 2 hours",101%
same,Remaining Rate of KDG,"pH 8.5, 50° C., 4 hours",100%
same,Remaining Rate of KDG,"pH 8.5, 50° C., 21 hours",99%
same,Remaining Rate of KDG,"pH 8.5, 50° C., 24 hours",98%
same,Remaining Rate of KDG,"pH 10.5, 25° C., 2 hours",102%
same,Remaining Rate of KDG,"pH 10.5, 25° C., 4 hours",101%
same,Remaining Rate of KDG,"pH 10.5, 25° C., 21 hours",100%
same,Remaining Rate of KDG,"pH 10.5, 25° C., 24 hours",101%
same,Remaining Rate of KDG,"pH 10.5, 50° C., 2 hours",101%
same,Remaining Rate of KDG,"pH 10.5, 50° C., 4 hours",99%
same,Remaining Rate of KDG,"pH 10.5, 50° C., 21 hours",94%
same,Remaining Rate of KDG,"pH 10.5, 50° C., 24 hours",93%
same,Remaining Rate of KDG,"pH 12.0, 4° C., 2 hours",101%
same,Remaining Rate of KDG,"pH 12.0, 4° C., 4 hours",99%
same,Remaining Rate of KDG,"pH 12.0, 4° C., 21 hours",100%
same,Remaining Rate of KDG,"pH 12.0, 4° C., 24 hours",98%
same,Remaining Rate of KDG,"pH 12.0, 25° C., 2 hours",99%
same,Remaining Rate of KDG,"pH 12.0, 25° C., 4 hours",95%
same,Remaining Rate of KDG,"pH 12.0, 25° C., 21 hours",84%
same,Remaining Rate of KDG,"pH 12.0, 25° C., 24 hours",79%
same,Stability to heat (in words),"pH 12.0, 50° C.",remarkably decomposed
same,Remaining Rate of KDG,"pH 12.0, 50° C., 2 hours",61%
same,Remaining Rate of KDG,"pH 12.0, 50° C., 4 hours",56%
